From US20210255193A1, “LYSINE REACTIVE PROBES AND USES THEREOF” (The Scripps Research Institute, priority 2017, published 2021)
Each block holds one compound with its values, some of them ahead of it.

How the values were obtained:
Assay in all cases: competitive isoTOP-ABPP
Assay type in all cases: binding
FAM136A Protein FAM136A = biological target: T1, FAM136A Protein FAM136A (Homo sapiens, UniProt Q96C01); conditions: for isoTOP-ABPP ratio (R) at liganded lysine Q96C01_K99: sol, 231
T1 construct: isoTOP-ABPP experiments performed in cell lysates (in vitro); endogenous in cells; host or cells: soluble proteome of human cancer cell lines (MDA-MB-231; Ramos and Jurkat also prepared)
T1 sequence (Q96C01 whole entry): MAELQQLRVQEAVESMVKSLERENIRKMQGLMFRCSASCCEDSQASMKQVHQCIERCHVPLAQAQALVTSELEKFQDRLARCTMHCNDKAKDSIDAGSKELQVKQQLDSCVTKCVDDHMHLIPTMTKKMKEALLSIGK
In short: (§1)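 Here, isoTOP-ABPP measures loss of STP-alkyne labeling at individual lysines after fragment exposure in lysate. Activated esters are dosed at 50 μM, guanidinylating agents at 100 μM; the probe follows at 0.1 mM for 1 h. R ≥4 marks a liganded lysine.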

SPAST Spastin = biological target: T2, SPAST Spastin (Homo sapiens, UniProt Q9UBP0); conditions: for isoTOP-ABPP ratio (R) at liganded lysine Q9UBP0_K180: sol, 231
T2 construct: endogenous in cells; host or cells: MDA-MB-231 lysate
T2 sequence (Q9UBP0 1-616): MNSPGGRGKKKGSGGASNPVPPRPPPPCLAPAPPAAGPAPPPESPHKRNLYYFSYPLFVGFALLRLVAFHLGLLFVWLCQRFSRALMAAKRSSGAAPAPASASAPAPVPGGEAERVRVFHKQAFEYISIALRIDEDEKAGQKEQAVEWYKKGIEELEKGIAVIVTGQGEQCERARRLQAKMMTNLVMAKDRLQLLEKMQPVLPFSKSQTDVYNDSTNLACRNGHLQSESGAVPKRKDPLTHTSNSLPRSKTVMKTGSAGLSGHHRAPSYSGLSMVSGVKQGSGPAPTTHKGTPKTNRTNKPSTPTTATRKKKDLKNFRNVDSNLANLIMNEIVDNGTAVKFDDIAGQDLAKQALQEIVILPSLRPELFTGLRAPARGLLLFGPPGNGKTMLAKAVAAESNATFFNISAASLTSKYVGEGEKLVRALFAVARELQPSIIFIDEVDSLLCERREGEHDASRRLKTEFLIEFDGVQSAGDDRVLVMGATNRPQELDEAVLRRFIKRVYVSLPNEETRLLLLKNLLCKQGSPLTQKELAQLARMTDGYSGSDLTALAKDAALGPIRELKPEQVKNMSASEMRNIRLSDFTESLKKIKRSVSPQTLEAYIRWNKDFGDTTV
In short: as §1

[1] = biological target: T3, TSTA3 GDP-L-fucose synthase (Homo sapiens, UniProt Q13630); conditions: for isoTOP-ABPP ratio (R) at liganded lysine Q13630_K108: 50 uM, in vitro, sol, 231
T3 construct: isoTOP-ABPP experiments performed in cell lysates (in vitro); endogenous in cells; host or cells: soluble proteome of human cancer cell lines (MDA-MB-231, Ramos, Jurkat)
T3 sequence (Q13630 whole entry): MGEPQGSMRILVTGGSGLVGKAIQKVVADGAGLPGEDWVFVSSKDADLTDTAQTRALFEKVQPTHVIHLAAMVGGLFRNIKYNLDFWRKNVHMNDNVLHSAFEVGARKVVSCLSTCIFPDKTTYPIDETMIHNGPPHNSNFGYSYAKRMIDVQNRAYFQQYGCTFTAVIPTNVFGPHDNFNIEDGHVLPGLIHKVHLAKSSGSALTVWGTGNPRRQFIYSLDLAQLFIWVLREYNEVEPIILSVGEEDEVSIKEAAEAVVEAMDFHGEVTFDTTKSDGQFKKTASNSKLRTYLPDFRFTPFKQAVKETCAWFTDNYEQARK
In short: as §1

[2] = biological target: T4, FH Fumarate hydratase, mitochondrial (Homo sapiens, UniProt P07954); conditions: for isoTOP-ABPP ratio, lysine P07954_K311: 50 uM_231_sol_in vitro
T4 construct: isoTOP-ABPP experiments performed in cell lysates (in vitro); endogenous in cells; host or cells: MDA-MB-231 soluble lysate
T4 sequence (P07954 45-510): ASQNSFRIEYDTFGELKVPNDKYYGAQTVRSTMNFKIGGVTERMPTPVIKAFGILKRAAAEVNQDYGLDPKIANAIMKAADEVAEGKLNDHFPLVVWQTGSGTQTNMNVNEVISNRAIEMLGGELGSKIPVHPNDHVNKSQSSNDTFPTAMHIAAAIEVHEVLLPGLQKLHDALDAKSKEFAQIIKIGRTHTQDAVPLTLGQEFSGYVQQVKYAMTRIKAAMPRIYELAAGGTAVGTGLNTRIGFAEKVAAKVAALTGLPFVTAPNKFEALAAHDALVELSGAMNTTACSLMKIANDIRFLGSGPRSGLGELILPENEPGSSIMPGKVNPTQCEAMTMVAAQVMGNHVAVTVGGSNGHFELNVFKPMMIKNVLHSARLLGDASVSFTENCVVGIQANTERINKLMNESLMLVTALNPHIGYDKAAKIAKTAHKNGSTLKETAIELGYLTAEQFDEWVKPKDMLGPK
In short: as §1

SMILES: Cn1cc(CC(=O)Oc2ccc([N+](=O)[O-])cc2[N+](=O)[O-])c2ccccc21 [fragment 32, 2,4-Dinitrophenyl 2-(1-methyl-1H-indol-3-yl)acetate]
- isoTOP-ABPP reactivity ratio at lysine Q96C01_K99 (FAM136A Protein FAM136A; 50 uM, 231 sol, in vitro): 0.9
- isoTOP-ABPP reactivity ratio at lysine Q9UBP0_K180 (SPAST Spastin; 50 uM, 231 sol, in vitro): 2.5

SMILES: O=C(Oc1ccc([N+](=O)[O-])cc1[N+](=O)[O-])C1CCN(C(=O)OCc2ccccc2)CC1 [fragment 34, 1-Benzyl 4-(2,4-dinitrophenyl) piperidine-1,4-dicarboxylate]
- isoTOP-ABPP ratio (R) at liganded lysine Q96C01_K99 (FAM136A Protein FAM136A; 50 uM, in vitro): 1.2

SMILES: O=C(CCc1coc2cc(F)ccc2c1=O)Oc1ccc([N+](=O)[O-])cc1[N+](=O)[O-] [fragment 36, 2,4-Dinitrophenyl 3-(7-fluoro-4-oxo-4H-chromen-3-yl)propanoate]
- isoTOP-ABPP ratio (R) at liganded lysine Q96C01_K99 (FAM136A Protein FAM136A; 50 uM, in vitro): 0.8

SMILES: O=C(CC12CC3CC(CC(C3)C1)C2)Oc1ccc([N+](=O)[O-])cc1[N+](=O)[O-] [fragment 38, 2,4-Dinitrophenyl 2-(adamantan-1-yl)acetate]
- isoTOP-ABPP ratio (R) at liganded lysine Q13630_K108 [1]: 0.9
- isoTOP-ABPP ratio (R) at liganded lysine Q9UBP0_K180 (SPAST Spastin; 50 uM, in vitro): 2.1

SMILES: O=C(Oc1ccc([N+](=O)[O-])cc1[N+](=O)[O-])c1ccc(Oc2ccccc2)cc1 [fragment 39, 2,4-Dinitrophenyl 4-phenoxybenzoate]
- isoTOP-ABPP ratio (R) at liganded lysine Q96C01_K99 (FAM136A Protein FAM136A; 50 uM, in vitro): 0.8
- isoTOP-ABPP ratio (R) at liganded lysine Q9UBP0_K180 (SPAST Spastin; 50 uM, in vitro): 1.4
- isoTOP-ABPP ratio (R) at liganded lysine P07954_K311 ([2]; 50 uM, in vitro, sol, 231): 0.9

SMILES: O=C(Oc1ccc([N+](=O)[O-])cc1[N+](=O)[O-])c1ccccc1Nc1cccc(C(F)(F)F)c1 [fragment 40, 2,4-Dinitrophenyl 2-((3-(trifluoromethyl)phenyl)amino)benzoate]
- isoTOP-ABPP ratio (R) at liganded lysine Q13630_K108 [1]: 0.9
- isoTOP-ABPP ratio (R) at liganded lysine Q96C01_K99 (FAM136A Protein FAM136A; 50 uM, in vitro): 0.8

SMILES: O=C(Oc1ccc([N+](=O)[O-])cc1[N+](=O)[O-])C(c1ccccc1)(c1ccccc1)c1ccccc1 [fragment 42, 2,4-Dinitrophenyl 2,2,2-triphenylacetate]
- isoTOP-ABPP ratio (R) at liganded lysine Q13630_K108 [1]: 1.0
- isoTOP-ABPP ratio (R) at liganded lysine Q96C01_K99 (FAM136A Protein FAM136A; 50 uM, in vitro): 0.9
- isoTOP-ABPP ratio (R) at liganded lysine Q9UBP0_K180 (SPAST Spastin; 50 uM, in vitro): 1.0

SMILES: CC(=O)Oc1ccc([N+](=O)[O-])cc1[N+](=O)[O-] [fragment 43, 2,4-Dinitrophenyl acetate]
- isoTOP-ABPP ratio (R) at liganded lysine Q96C01_K99 (FAM136A Protein FAM136A; 50 uM, in vitro): 1.1
- isoTOP-ABPP ratio (R) at liganded lysine Q9UBP0_K180 (SPAST Spastin; 50 uM, in vitro): 2.7

SMILES: O=C(ON1C(=O)CCC1=O)c1cc(C(F)(F)F)cc(C(F)(F)F)c1 [fragment 46, 3,5-Bis(trifluoromethyl)benzoic acid NHS ester]
- isoTOP-ABPP ratio, lysine Q13630_K108 ([1]; 50 uM_231_sol_in vitro): 2.7
- isoTOP-ABPP ratio, lysine Q96C01_K99 (FAM136A Protein FAM136A; 50 uM_231_sol_in vitro): 0.6
- isoTOP-ABPP ratio, lysine Q9UBP0_K180 (SPAST Spastin; 50 uM_231_sol_in vitro): 4.4

- isoTOP-ABPP ratio, lysine Q96C01_K99 (FAM136A Protein FAM136A; 50 uM_231_sol_in vitro): 0.7
- isoTOP-ABPP ratio, lysine P07954_K311 [2]: 1.4
SMILES: O=C(Oc1c(F)c(F)c(C(F)(F)F)c(F)c1F)c1cc(C(F)(F)F)cc(C(F)(F)F)c1 [fragment 47, 2,3,5,6-Tetrafluoro-4-(trifluoromethyl)phenyl 3,5-bis(trifluoromethyl)benzoate]

- isoTOP-ABPP ratio, lysine Q96C01_K99 (FAM136A Protein FAM136A; 50 uM_231_sol_in vitro): 5.5
SMILES: O=C(Oc1c(F)c(F)cc(F)c1F)c1cc(C(F)(F)F)cc(C(F)(F)F)c1 [fragment 48, 2,3,5,6-Tetrafluorophenyl 3,5-bis(trifluoromethyl)benzoate]

- isoTOP-ABPP ratio, lysine Q96C01_K99 (FAM136A Protein FAM136A; 100 uM_231_sol_in vitro): 1.3
SMILES: COC(=O)NC(=NC(=O)OCC1c2ccccc2-c2ccccc21)n1cccn1 [fragment 49, N-Methoxycarbonyl-N′-9-fluorenylmethoxycarbonyl-pyrazole-1-carboxamidine]

- isoTOP-ABPP ratio, lysine Q13630_K108 ([1]; 100 uM_231_sol_in vitro): 1.0
- isoTOP-ABPP ratio, lysine Q9UBP0_K180 (SPAST Spastin; 100 uM_231_sol_in vitro): 2.0
SMILES: CC(C)(C)OC(=O)N=C(NC(=O)OC(C)(C)C)n1cccn1 [fragment 50, reference compound]

- isoTOP-ABPP ratio, lysine P07954_K311 [2]: 1.0
SMILES: NC(=O)c1cc(C(F)(F)F)cc(C(F)(F)F)c1 [fragment 51, reference compound]
